Experiments:
[1] = system: C57/BL male mice; assay: Septic shock assay (LPS plus galactosamine challenge); assay type: in vivo, mouse; conditions: 60, 20, 6 and 2 mg/kg daily IP for three days, first dose 30 minutes after challenge
Description: Groups of 10 C57/BL male mice weighing 18 to 20 g were administered a test compound, 1-carboxynaphthalene-1-carboxamide at the doses of 60, 20, 6 and 2 mg/kg, daily, by intraperitoneal (IP) injection for three consecutive days. Each animal was first challenged with lipopolysaccharide (LPS, from E. Coli, LD100 of 20 mg/animal IV) plus galactosamine (20 mg/animal IV). The first dose of test compound in a suitable vehicle was given 30 minutes after challenge, and the second and third doses were given 24 hours later on day 2 and day 3 respectively, with only the surviving animals receiving the second or third dose of the test compound. Mortality was recorded every 12 hours after challenge for the three-day testing period. 1-Carboxy-naphthalene-1-carboxamide provided a protection against mortality from septic shock of about 40%.

[2] = system: human fibroblast cells lines (W138 or BJ cells); assay: Proliferative capacity and lifespan of cells; assay type: cell-based
Description: At the time of subdivision, the media is aspirated, and the cells rinsed with phosphate buffer saline (PBS) and then trypsinized. The cells are counted with a Coulter counter and plated at a density of 10^5 cells per cm^2 in 6-well tissue culture plates in DMEM/199 medium supplemented with 10% bovine calf serum and varying amounts ([…]: from a 100× stock solution in DMEM/M199 medium) of a PARP inhibitor of Formula I as disclosed herein. This process is repeated every 7 days until the cell appear to stop dividing. The untreated (control) cells reach senescence and stop dividing after about 40 days in culture. […] The cells treated with 1 mM 3-AB will still divide after 60 days in culture.

[3] = system: colitis in rats; conditions: rat, in vivo; cited from earlier work
[4] = system: cell viability, glucose metabolism, and DNA synthesis; conditions: cited from earlier work
[5] = system: focal cerebral ischemia in male Long-Evans rats; assay: Focal cerebral ischemia in rats (right distal MCA cauterization with bilateral temporary CCA occlusion), infarct by TTC staining; assay type: in vivo, rat
Description: Focal cerebral ischemia was produced by cauterization of the right distal MCA (middle cerebral artery) with bilateral temporary common carotid artery occlusion in male Long-Evans rats for 90 minutes. All procedures performed on the animals were approved by the University Institutional Animal Care and Use Committee of the University of Pennsylvania. A total of 42 rats (weights: 230-340 g) obtained from Charles River were used in this study. The animals fasted overnight with free access to water prior to the surgical procedure.
Two hours prior to MCA occlusion, varying amounts (control, n=14; 5 mg/kg, n=7; 10 mg/kg, n=7; 20 mg/kg, n=7; and 40 mg/kg, n=7) of the compound, 3,4-dihydro-5-[4-(1-piperidinyl)-butoxy]-1(2H)-isoquinolinone (“DPQ”) were dissolved in dimethyl sulfoxide (DMSO) using a sonicator. A volume of 1.28 ml/kg of the resulting solution was injected intraperitoneally into […].
Focal cerebral ischemia was produced by cauterization of the distal portion of the right MCA with bilateral temporary common carotid artery (CCA) occlusion by the procedure of Chen et al., “A Model of Focal Ischemic Stroke in the Rat: Reproducible Extensive Cortical Infarction”, Stroke 17:738-43 (1986) and/or Liu et al., “Polyethylene Glycol-conjugated Superoxide Dismutase and Catalase Reduce Ischemic Brain Injury”, Am. J. Physiol. 256:H589-93 (1989), both of which are hereby incorporated by reference. […]
Two hours after MCA occlusion, the animals were given the same doses of the PARP inhibitor as in the pre-treatment. […] To avoid artifacts due to edema, the damaged area was calculated by subtracting the area of the normal tissue in the hemisphere ipsilateral to the stroke from the area of the hemisphere contralateral to the stroke, by the method of Swanson et al., “A Semiautomated Method for Measuring Brain Infarct Volume”, J. Cereb. […] The total volume of infarction was calculated by summation of the damaged volume of the brain slices.

[6] = system: endotoxic shock; conditions: in vivo; cited from earlier work

## NC(=O)C1(C(=O)O)CC=Cc2ccccc21 (centres unmarked) [1-Carboxy-naphthalene-1-carboxamide, 1-carboxynaphthalene-1-carboxamide]
[1]
  protection against mortality from septic shock: about 40%

## NC(=O)c1cccc(N)c1 [3-aminobenzamide]
[2]; 10 uM
  lifespan and proliferative capacity of the cells: little or no effect
[2]; 100 uM
  lifespan and proliferative capacity of the cells: lengthen the lifespan of the cells
[2]; 1 mM
  lifespan and proliferative capacity of the cells: dramatically increases the lifespan and proliferative capacity of the cells
[3]
  inflammatory response, morphology and energetic status of the distal colon: reduced the inflammatory response and restored the morphology and the energetic status of the distal colon
[4]
  additional metabolic effects: shown to affect cell viability, glucose metabolism, and DNA synthesis

## O=C1NCCc2c(OCCCCN3CCCCC3)cccc21 [DPQ, 3,4-dihydro-5-[4-(1-piperidinyl)-butoxy]-1(2H)-isoquinolinone]
[5]; 5 mg/kg
  cross-sectional infarct area curve (FIG. 1): approximately halfway between the control and the 10 mg/kg curves
[5]; 20 mg/kg
  cross-sectional infarct area curve (FIG. 1): approximately halfway between the control and the 10 mg/kg curves
[5]; 40 mg/kg
  cross-sectional infarct area curve (FIG. 1): close to the control

## NC(=O)c1ccccc1 [benzamide]
[4]
  additional metabolic effects: shown to affect cell viability, glucose metabolism, and DNA synthesis

## NC(=O)c1cccnc1 [nicotinamide]
[6]
  delayed, NO-mediated vascular failure: protects against delayed, NO-mediated vascular failure in endotoxic shock

Source: US6380193B1, “Fused tricyclic compounds, methods and compositions for inhibiting PARP activity” (Guilford Pharmaceuticals Inc., priority 1998, dated 2002)
